Consider 1 compound from article PMC6997888, “Salicylic Acid Targets Protein Phosphatase 2A to Attenuate Growth in Plants” (Current Biology, 2020).

In assay [1] the target is T1, PP2AA3 (Arabidopsis thaliana, UniProt Q38951).
T1 construct: recombinant His-PP2AA3 (pET28a, coding region)
T1 sequence (Q38951 1-587): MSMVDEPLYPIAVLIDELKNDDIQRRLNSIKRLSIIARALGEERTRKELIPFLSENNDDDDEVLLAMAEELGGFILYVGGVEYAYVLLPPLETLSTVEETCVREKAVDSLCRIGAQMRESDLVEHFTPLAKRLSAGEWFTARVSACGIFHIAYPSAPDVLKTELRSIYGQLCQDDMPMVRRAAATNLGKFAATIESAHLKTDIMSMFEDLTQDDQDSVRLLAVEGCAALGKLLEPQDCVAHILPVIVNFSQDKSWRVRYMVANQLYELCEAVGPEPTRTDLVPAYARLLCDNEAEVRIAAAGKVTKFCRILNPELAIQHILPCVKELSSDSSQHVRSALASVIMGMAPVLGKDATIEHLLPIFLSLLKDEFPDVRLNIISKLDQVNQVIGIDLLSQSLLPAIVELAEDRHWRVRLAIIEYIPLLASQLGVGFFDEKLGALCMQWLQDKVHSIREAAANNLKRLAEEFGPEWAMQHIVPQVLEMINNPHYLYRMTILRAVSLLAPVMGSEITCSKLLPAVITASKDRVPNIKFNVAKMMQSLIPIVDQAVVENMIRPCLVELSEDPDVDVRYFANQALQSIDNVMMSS
In words: SPR, steady state; SA-f immobilized on CM5 chip, His-PP2AA3 flowed over. Format: binding. From the text:
SPR, steady state; SA-f immobilized on CM5 chip, His-PP2AA3 flowed over on PP2AA3 | The same sensor chip as above was used, and different concentrations of His-PP2AA3 were applied.

In assay [2] the target is T2, PP2AA1 (Arabidopsis thaliana, UniProt Q38845).
T2 construct: recombinant His-PP2AA1 (pET28a, coding region)
T2 sequence (Q38845 1-588): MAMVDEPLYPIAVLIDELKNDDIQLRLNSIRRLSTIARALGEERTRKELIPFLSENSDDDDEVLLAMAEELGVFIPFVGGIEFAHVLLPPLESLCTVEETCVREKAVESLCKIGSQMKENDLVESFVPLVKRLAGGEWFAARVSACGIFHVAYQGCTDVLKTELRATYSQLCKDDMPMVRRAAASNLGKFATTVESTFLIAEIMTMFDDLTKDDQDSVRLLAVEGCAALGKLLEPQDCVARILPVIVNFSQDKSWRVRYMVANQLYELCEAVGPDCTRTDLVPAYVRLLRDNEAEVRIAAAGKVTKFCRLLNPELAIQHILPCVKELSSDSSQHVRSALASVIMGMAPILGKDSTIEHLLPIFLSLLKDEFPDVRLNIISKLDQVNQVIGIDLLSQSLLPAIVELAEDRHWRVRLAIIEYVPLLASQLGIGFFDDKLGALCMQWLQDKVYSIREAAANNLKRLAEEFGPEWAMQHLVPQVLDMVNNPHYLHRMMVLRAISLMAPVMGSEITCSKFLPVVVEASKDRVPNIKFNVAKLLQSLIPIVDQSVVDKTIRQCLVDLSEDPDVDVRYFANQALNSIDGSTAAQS
As to the kind of experiment: SPR, steady state; SA-f immobilized on CM5 chip, His-PP2AA1 flowed over. It counts as binding. The source says: SPR, steady state; SA-f immobilized on CM5 chip, His-PP2AA1 flowed over on PP2AA1 | An active synthetic SA analog (SA-f) was immobilized on a CM-5 sensor chip, and different concentrations of His-PP2AA1 were applied

Consider `NCCCCCOc1ccc(O)c(C(=O)O)c1` [SA-f, 5-((5-aminopentyl)oxy)-2-hydroxybenzoic acid], for which the values for the Kd in assay [1] and in assay [2] were 1.92 µM and 3.62 µM, respectively.
